Experimental data published in patent publication US6355799B1, “Substituted benzene compounds, process for their preparation, and herbicidal and defoliant compositions containing them” (ISK Americas Incorporated, priority 1997, dated 2002).

What was measured:
Format in all cases: in vivo
[1] = test system: sicklepod (Cassia obtusifolia, CASOB); assay: Post-emerge test, greenhouse herbicide activity screening; details: post-emerge, 14 days after application, rating scale 0-100
Procedure, shortened: (§1)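 Herbicidal damage is scored 0 (none) to 100 (complete plant death) two weeks after a simulated field spray. Rates span 15–1000 g ai/ha, delivered in acetone at 187 l/ha. For post-emergence treatments, plants have 2–3 leaves and the spray carries 0.25% v/v non-ionic surfactant.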

[2] = test system: lambsquarters (Chenopodium album, CHEAL); assay: as above; details: post-emerge, 14 days after application, rating scale 0-100
Procedure, shortened: as §1

[3] = test system: common ragweed (Ambrosia artemisizfolia L., AMBEL); assay: as above; details: post-emerge, 14 days after application, rating scale 0-100
Procedure, shortened: as §1

[4] = test system: large crabgrass (Digitaria sanguinalis, DIGSA); assay: as above; details: post-emerge, 14 days after application, rating scale 0-100
Procedure, shortened: as §1

[5] = test system: barnyardgrass (Echinochloa crus-galli, ECHCG); assay: as above; details: post-emerge, 14 days after application, rating scale 0-100
Procedure, shortened: as §1

[6] = test system: johnsongrass (Sorghum halepense, SORHA); assay: as above; details: post-emerge, 14 days after application, rating scale 0-100
Procedure, shortened: as §1

[7] = test system: ivyleaf morningglory (Ipomoea hederacea, IPOHE); assay: as above; details: post-emerge, 14 days after application, rating scale 0-100
Procedure, shortened: as §1

[8] = test system: green foxtail (Setaria viridis, SETVI); assay: as above; details: post-emerge, 14 days after application, rating scale 0-100
Procedure, shortened: as §1

[9] = test system: velvetleaf (Abutilon theophrasti, ABUTH); assay: as above; details: post-emerge, 14 days after application, rating scale 0-100
Procedure, shortened: as §1

[10] = test system: redroot pigweed (Amaranthus retroflexus, AMARE); assay: as above; details: post-emerge, 14 days after application, rating scale 0-100
Procedure, shortened: as §1

[11] = test system: upland rice (Oryza sp., var. Tebonnet, RICE); assay: Post-emerge test, crop safety; details: post-emerge, 14 days after application, rating scale 0-100
Procedure, shortened: (§2)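 Each test used a mechanized track sprayer delivering 187 l/ha of acetone solution at 15–1000 g ai/ha. Post-emerge foliage at 2–3 leaves was treated with added 0.25% v/v non-ionic surfactant and bottom-watered only. Injury was assessed on day 14, where 100 means total kill.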

[12] = test system: field corn (Zea mays L., var. Dekalb 535, CORN); assay: Post-emerge test, crop safety; details: post-emerge, 14 days after application, rating scale 0-100
Procedure, shortened: as §2

[13] = test system: sicklepod (Cassia obtusifolia, CASOB); assay: Pre-emerge test, greenhouse herbicide activity screening; details: rated 14 days after application, 0 = no damage, 100 = complete death
Procedure, shortened: (§3)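 Plants grown in 10 cm pots of sandy loam mix received acetone-dissolved compounds through a moving flat-fan nozzle. Doses ranged from 15 to 1000 g ai/ha. Pre-emerge pots were seeded one day earlier, post-emerge pots 8–21 days earlier. Fourteen days on, each pot was graded 0–100 for damage.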

[14] = test system: lambsquarters (Chenopodium album, CHEAL); assay: as above; details: rated 14 days after application, 0 = no damage, 100 = complete death
Procedure, shortened: as §3

[15] = test system: common ragweed (Ambrosia artemisizfolia L., AMBEL); assay: as above; details: rated 14 days after application, 0 = no damage, 100 = complete death
Procedure, shortened: as §3

[16] = test system: large crabgrass (Digitaria sanguinalis, DIGSA); assay: as above; details: rated 14 days after application, 0 = no damage, 100 = complete death
Procedure, shortened: as §3

[17] = test system: barnyardgrass (Echinochloa crus-galli, ECHCG); assay: as above; details: rated 14 days after application, 0 = no damage, 100 = complete death
Procedure, shortened: as §3

[18] = test system: johnsongrass (Sorghum halepense, SORHA); assay: as above; details: rated 14 days after application, 0 = no damage, 100 = complete death
Procedure, shortened: as §3

[19] = test system: ivyleaf morningglory (Ipomoea hederacea, IPOHE); assay: as above; details: rated 14 days after application, 0 = no damage, 100 = complete death
Procedure, shortened: as §3

[20] = test system: green foxtail (Setaria viridis, SETVI); assay: as above; details: rated 14 days after application, 0 = no damage, 100 = complete death
Procedure, shortened: as §3

[21] = test system: velvetleaf (Abutilon theophrasti, ABUTH); assay: as above; details: rated 14 days after application, 0 = no damage, 100 = complete death
Procedure, shortened: as §3

[22] = test system: redroot pigweed (Amaranthus retroflexus, AMARE); assay: as above; details: rated 14 days after application, 0 = no damage, 100 = complete death
Procedure, shortened: as §1

[23] = test system: upland rice (Oryza sp., var. Tebonnet, RICE); assay: Pre-emerge test, crop safety; details: rated 14 days after application, 0 = no damage, 100 = complete death
Procedure, shortened: (§4)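 Rating: 0–100 visual injury, 14 DAA. Application: acetone, 187 l/ha, 15–1000 g ai/ha, flat-fan track sprayer with nozzle 40–45 cm above soil or canopy. Post-emerge runs used 0.25% v/v surfactant on 2–3 leaf plants.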

[24] = test system: field corn (Zea mays L., var. Dekalb 535, CORN); assay: Pre-emerge test, crop safety; details: rated 14 days after application, 0 = no damage, 100 = complete death
Procedure, shortened: as §4

Q: How did the “phytotoxicity rating CASOB” value ([1]; 63 g ai/ha) turn out when `COc1c(Cl)cc(F)c(-n2c(=O)cc(C(F)(F)F)n(C)c2=O)c1NC(=O)c1ccc(F)c(F)c1` [2-48] was run?
A: 50

Q: And the “phytotoxicity rating CASOB” value ([1]; 250 g ai/ha)?
A: 100

Q: And the “phytotoxicity rating CHEAL” value ([2]; 63 g ai/ha)?
A: 95

Q: And the “phytotoxicity rating CHEAL” value ([2]; 250 g ai/ha)?
A: 100

Q: What about the “phytotoxicity rating AMBEL” value ([3]; 63 g ai/ha) of the same compound?
A: 85

Q: And the “phytotoxicity rating AMBEL” value ([3]; 250 g ai/ha)?
A: 100

Q: What about the “phytotoxicity rating DIGSA” value ([4]; 63 g ai/ha) of the same compound?
A: 0

Q: And the “phytotoxicity rating DIGSA” value ([4]; 250 g ai/ha)?
A: 20

Q: What about the “phytotoxicity rating ECHCG” value ([5]; 63 g ai/ha) of the same compound?
A: 0

Q: What about the “phytotoxicity rating ECHCG” value ([5]; 250 g ai/ha) of the same compound?
A: 80

Q: What about the “phytotoxicity rating SORHA” value ([6]; 63 g ai/ha) of the same compound?
A: 30

Q: What about the “phytotoxicity rating SORHA” value ([6]; 250 g ai/ha) of the same compound?
A: 60

Q: What about the “phytotoxicity rating IPOHE” value ([7]; 63 g ai/ha) of the same compound?
A: 100

Q: What about the “phytotoxicity rating IPOHE” value ([7]; 250 g ai/ha) of the same compound?
A: 100

Q: And the “phytotoxicity rating SETVI” value ([8]; 63 g ai/ha)?
A: 20

Q: And the “phytotoxicity rating SETVI” value ([8]; 250 g ai/ha)?
A: 70

Q: And the “phytotoxicity rating ABUTH” value ([9]; 63 g ai/ha)?
A: 100

Q: And the “phytotoxicity rating ABUTH” value ([9]; 250 g ai/ha)?
A: 100

Q: And the “phytotoxicity rating AMARE” value ([10]; 63 g ai/ha)?
A: 95

Q: And the “phytotoxicity rating AMARE” value ([10]; 250 g ai/ha)?
A: 100

Q: And the “phytotoxicity rating RICE” value ([11]; 63 g ai/ha)?
A: 80

Q: And the “phytotoxicity rating RICE” value ([11]; 250 g ai/ha)?
A: 86

Q: What about the “phytotoxicity rating CORN” value ([12]; 63 g ai/ha) of the same compound?
A: 50

Q: What about the “phytotoxicity rating CORN” value ([12]; 250 g ai/ha) of the same compound?
A: 70

Q: What about the “Pre-emerge Herbicidal Activity, phytotoxicity rating (0-100), CASOB” value ([13]; 63 g ai/ha) of the same compound?
A: 100

Q: What about the “Pre-emerge Herbicidal Activity, phytotoxicity rating (0-100), CASOB” value ([13]; 250 g ai/ha) of the same compound?
A: 100

Q: What about the “Pre-emerge Herbicidal Activity, phytotoxicity rating (0-100), CHEAL” value ([14]; 63 g ai/ha) of the same compound?
A: 100

Q: What about the “Pre-emerge Herbicidal Activity, phytotoxicity rating (0-100), CHEAL” value ([14]; 250 g ai/ha) of the same compound?
A: 100

Q: What about the “Pre-emerge Herbicidal Activity, phytotoxicity rating (0-100), AMBEL” value ([15]; 63 g ai/ha) of the same compound?
A: 100

Q: And the “Pre-emerge Herbicidal Activity, phytotoxicity rating (0-100), AMBEL” value ([15]; 250 g ai/ha)?
A: 100

Q: What about the “Pre-emerge Herbicidal Activity, phytotoxicity rating (0-100), DIGSA” value ([16]; 63 g ai/ha) of the same compound?
A: 95

Q: What about the “Pre-emerge Herbicidal Activity, phytotoxicity rating (0-100), DIGSA” value ([16]; 250 g ai/ha) of the same compound?
A: 100

Q: What about the “Pre-emerge Herbicidal Activity, phytotoxicity rating (0-100), ECHCG” value ([17]; 63 g ai/ha) of the same compound?
A: 85

Q: And the “Pre-emerge Herbicidal Activity, phytotoxicity rating (0-100), ECHCG” value ([17]; 250 g ai/ha)?
A: 100

Q: And the “Pre-emerge Herbicidal Activity, phytotoxicity rating (0-100), SORHA” value ([18]; 63 g ai/ha)?
A: 95

Q: And the “Pre-emerge Herbicidal Activity, phytotoxicity rating (0-100), SORHA” value ([18]; 250 g ai/ha)?
A: 95

Q: And the “Pre-emerge Herbicidal Activity, phytotoxicity rating (0-100), IPOHE” value ([19]; 63 g ai/ha)?
A: 100

Q: What about the “Pre-emerge Herbicidal Activity, phytotoxicity rating (0-100), IPOHE” value ([19]; 250 g ai/ha) of the same compound?
A: 100

Q: And the “Pre-emerge Herbicidal Activity, phytotoxicity rating (0-100), SETVI” value ([20]; 63 g ai/ha)?
A: 100

Q: And the “Pre-emerge Herbicidal Activity, phytotoxicity rating (0-100), SETVI” value ([20]; 250 g ai/ha)?
A: 100

Q: And the “Pre-emerge Herbicidal Activity, phytotoxicity rating (0-100), ABUTH” value ([21]; 63 g ai/ha)?
A: 100

Q: What about the “Pre-emerge Herbicidal Activity, phytotoxicity rating (0-100), ABUTH” value ([21]; 250 g ai/ha) of the same compound?
A: 100

Q: And the “Pre-emerge Herbicidal Activity, phytotoxicity rating (0-100), AMARE” value ([22]; 63 g ai/ha)?
A: 100

Q: And the “Pre-emerge Herbicidal Activity, phytotoxicity rating (0-100), AMARE” value ([22]; 250 g ai/ha)?
A: 100

Q: What about the “Pre-emerge phytotoxicity rating (0-100), crop damage, RICE” value ([23]; 63 g ai/ha) of the same compound?
A: 90

Q: What about the “Pre-emerge phytotoxicity rating (0-100), crop damage, RICE” value ([23]; 250 g ai/ha) of the same compound?
A: 99

Q: And the “Pre-emerge phytotoxicity rating (0-100), crop damage, CORN” value ([24]; 63 g ai/ha)?
A: 90

Q: What about the “Pre-emerge phytotoxicity rating (0-100), crop damage, CORN” value ([24]; 250 g ai/ha) of the same compound?
A: 99
